Assay results reported in ChEMBL document CHEMBL3632525, “Decorated 6,6,7,7-tetrahydro-1H,1H-2,3-biindole scaffold as promising candidate for recognition of the CDK2 allosteric site” (Medchemcomm, 2015).
pIC50: −log10 of the molar value. The source made the active and inactive calls.

Tests used:
Vero [1] = assay: Cytotoxicity against African green monkey Vero cells assessed as reduction of cell viability at 80 to 100 uM by CellTiter-Glo luminescent assay; format: cell-based; settings: chlorocebus sabaeus, TDE = time-dependent effect
HEp-2 [2] = assay: Cytotoxicity against human Hep2 cells assessed as reduction of cell viability at 80 to 100 uM by CellTiter-Glo luminescent assay; format: functional, cell-based; settings: TDE = time-dependent effect
HEK-293T [3] = assay: Cytotoxicity against HEK293T cells assessed as reduction of cell viability at 80 to 100 uM by CellTiter-Glo luminescent assay; format: functional, cell-based; settings: Homo sapiens, TDE = time-dependent effect
Vero [4] = assay: Cytotoxicity against African green monkey Vero cells assessed as reduction of cell viability after 24 to 72 hrs by CellTiter-Glo luminescent assay; format: cell-based; settings: chlorocebus sabaeus
HEp-2 [5] = assay: Cytotoxicity against human Hep2 cells assessed as reduction of cell viability after 24 to 72 hrs by CellTiter-Glo luminescent assay; format: functional, cell-based
HEK-293T [6] = assay: Cytotoxicity against HEK293T cells assessed as reduction of cell viability after 24 to 72 hrs by CellTiter-Glo luminescent assay; format: functional, cell-based; settings: Homo sapiens
Vero [7] = assay: Inhibition of CDK2 phosphorylation in African green monkey Vero cells at 100 uM after 24 hrs by Western blot analysis relative to control; format: cell-based; settings: Chlorocebus sabaeus
[8] = target: T1, Cyclin-dependent kinase 2 (Homo sapiens, UniProt P24941); assay: Inhibition of CDK2 phosphorylation in human Hep2 cells at 100 uM after 24 hrs by Western blot analysis relative to control; format: cell-based; settings: HEp-2
[9] = target: T1, Cyclin-dependent kinase 2; assay: Inhibition of CDK2 phosphorylation in HEK293T cells at 100 uM after 24 hrs by Western blot analysis relative to control; format: cell-based; settings: HEK-293T
Vero [10] = assay: Inhibition of cyclin E phosphorylation in African green monkey Vero cells at 100 uM after 24 hrs by Western blot analysis relative to control; format: cell-based; settings: Chlorocebus sabaeus
[11] = target: G1/S-specific cyclin-E1 (Homo sapiens) (UniProt P24864); assay: Inhibition of cyclin E phosphorylation in human Hep2 cells at 100 uM after 24 hrs by Western blot analysis relative to control; format: cell-based; settings: HEp-2
Sequence of G1/S-specific cyclin-E1 (Homo sapiens) (P24864 whole entry): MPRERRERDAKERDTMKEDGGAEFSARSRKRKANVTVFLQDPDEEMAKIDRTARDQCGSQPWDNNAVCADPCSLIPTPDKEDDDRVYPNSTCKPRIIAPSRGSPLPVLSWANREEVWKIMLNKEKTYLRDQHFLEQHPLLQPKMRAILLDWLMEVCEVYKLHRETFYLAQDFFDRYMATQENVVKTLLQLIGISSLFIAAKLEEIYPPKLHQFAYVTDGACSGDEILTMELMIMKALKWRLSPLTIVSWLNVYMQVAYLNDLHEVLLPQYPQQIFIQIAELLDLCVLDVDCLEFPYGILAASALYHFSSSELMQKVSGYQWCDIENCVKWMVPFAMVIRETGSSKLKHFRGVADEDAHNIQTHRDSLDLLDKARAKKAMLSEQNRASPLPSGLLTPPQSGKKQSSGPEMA

[12] = target: G1/S-specific cyclin-E1 (Homo sapiens) (UniProt P24864); assay: Inhibition of cyclin E phosphorylation in HEK293T cells at 100 uM after 24 hrs by Western blot analysis relative to control; format: cell-based; settings: HEK-293T
Vero [13] = assay: Inhibition of CDK2/Cyclin E in African green monkey Vero cells assessed as reduction of hyperphosphorylated pRB expression at 100 uM after 24 hrs by Western blot analysis relative to control; format: cell-based; settings: Chlorocebus sabaeus
[14] = target: T2, Cyclin-dependent kinase 2/cyclin E1 (Homo sapiens) (UniProt P24864+P24941); assay: Inhibition of CDK2/Cyclin E in human Hep2 cells assessed as reduction of hyperphosphorylated pRB expression at 100 uM after 24 hrs by Western blot analysis relative to control; format: cell-based; settings: HEp-2
[15] = target: T2, Cyclin-dependent kinase 2/cyclin E1 (Homo sapiens); assay: Inhibition of CDK2/Cyclin E in HEK293T cells assessed as reduction of hyperphosphorylated pRB expression at 100 uM after 24 hrs by Western blot analysis relative to control; format: cell-based; settings: HEK-293T
[16] = target: T2, Cyclin-dependent kinase 2/cyclin E1 (Homo sapiens); assay: Inhibition of CDK2/Cyclin E in HEK293T cells assessed as reduction of EGF-stimulated E2F pathway after 24 hrs by dual-Glo luciferase reporter gene assay relative to control; format: cell-based; settings: HEK-293T
[17] = target: T1, Cyclin-dependent kinase 2; assay: Binding affinity to CDK2 allosteric site (unknown origin)

Cc1[nH]c2c(c1C1(C)NC3=C(C(=O)CC(c4ccccc4)C3)C1=O)C(=O)CC(c1ccccc1)C2 (configuration not stated)
< 4.04: pIC50 [17]
tde: Activity (Vero [1])
active: Activity (HEp-2 [2]) tde | Activity (HEK-293T [3]) tde | Activity (HEp-2 [5]) Dose-dependent effect | Activity (HEK-293T [6]) Dose-dependent effect | inhibition (Vero [7]) | inhibition [8] | inhibition [9] | inhibition (Vero [10]) | inhibition [11] | inhibition [12] | inhibition (Vero [13]) | inhibition [14] | inhibition [15] | inhibition [16] Dose-dependent effect
Dose-dependent effect: Activity (Vero [4])
